Measured values as given in patent US5412095A, “Terazosin monohydrochloride and processes and intermediate for its production” (Abbott Laboratories, priority 1994, dated 1995).
Where a name gives a salt, the structure may show the parent alone. Read-outs that look alike come from different tables or passages of the source.

Key:
[1] = Solubility/dissolution of forms of terazosin monohydrochloride in distilled water (shaken, 0.45 µm filtered, UV at 254 nm); format: physicochemical; conditions: for solubility at 0.5 min / solubility at 1 min / solubility at 2 min / solubility at 4 min / Solubility of Various Forms of Terazosin Monohydrochloride: distilled water, 2 g in 5 mL; for solubility at 0.5 min / solubility at 1 min / solubility at 2 min / solubility at 4 min: read-out: Solubility of Various Forms of Terazosin Monohydrochloride; for dissolution in water (in words): qualitative
Protocol: The data in Table 1 were collected, for each data point, by weighing 2 g samples of terazosin monohydrochloride dihydrate and each of Forms I, II and II of the non-solvated monohydrochloride separately into 50 mL centrifuge tubes. Five mL of distilled water were added to each tube and the tubes shaken for the times indicated and then rapidly filtered through a 0.45 μu nylon membrane filter. The resulting flitrates were serially diluted with water 2 to […], 5 to 50, 5 to 50 and 5 to 100 mL and the ultraviolet absorption maximum at 254 nm measured. The concentrations of the dissolved terazosin were then calculated from the absorption data using dam from a series of standard concentrations.

[2] = free base form; cited from earlier work
[3] = Acidic cleavage of terazosin in aqueous acid; format: physicochemical; conditions: aqueous medium, cleaves into 4-amino-6,7-dimethoxy-2-piperazinylquinazoline and 2-furoic acid
Protocol: In the particular case of terazosin, when the parent compound or its hydrochloride salt is in contact for extended periods with aqueous acid, it undergoes an undesirable side reaction which cleaves the compound into its constituent parts: [drawing 2]
Moreover, if the hydrochloride salt is prepared by lyophilization of the reaction mixture of terazosin free base and hydrochloric acid, unless care is taken to remove any excess acid present in the isolated salt, the solid may also contain small amounts of acid which causes degradative cleavage over time.

COc1cc2nc(N3CCN(C(=O)C4CCCO4)CC3)nc(N)c2cc1OC.Cl.O.O (stereo not shown) [Dihydrate, 1-(4-Amino-6,7-dimethoxy-2-quinazolinyl)-4-(tetrahydro-2-furoyl)piperazine monohydrochloride dihydrate]
solubility at 0.5 min ([1]; 0.5 minutes): 29 mg/mL
solubility at 1 min ([1]; 1 minute): 30 mg/mL
solubility at 2 min ([1]; 2 minutes): 27 mg/mL
solubility at 4 min ([1]; 4 minutes): 26 mg/mL
solubility ([1]; water, rapidly reached, read-out: limit of solubility): ~30 mg/mL

COc1cc2nc(N3CCN(C(=O)C4CCCO4)CC3)nc(N)c2cc1OC (stereo not shown) [Form I, 1-(4-amino-6,7-dimethoxy-2-quinazolinyl)-4-(tetrahydro-2-furoyl)piperazinemonohydrochloride]
solubility at 0.5 min ([1]; water, 0.5 minutes): 273 mg/mL
solubility at 1 min ([1]; water, 1 minute): 283 mg/mL
solubility at 2 min ([1]; water, 2 minutes): 289 mg/mL
solubility at 4 min ([1]; water, 4 minutes): 276 mg/mL

COc1cc2nc(N3CCN(C(=O)C4CCCO4)CC3)nc(N)c2cc1OC (stereo not shown) [Form II, 1-(4-amino-6,7-dimethoxy-2-quinazolinyl)-4-(tetrahydro-2-furoyl)piperazinemonohydrochloride]
Solubility of Various Forms of Terazosin Monohydrochloride ([1]; 0.5 minutes): 280 mg/mL
Solubility of Various Forms of Terazosin Monohydrochloride ([1]; 1 minute, 1 min): 253 mg/mL
Solubility of Various Forms of Terazosin Monohydrochloride ([1]; 2 minutes): 311 mg/mL
Solubility of Various Forms of Terazosin Monohydrochloride ([1]; 4 minutes): 323 mg/mL

COc1cc2nc(N3CCN(C(=O)C4CCCO4)CC3)nc(N)c2cc1OC (stereo not shown) [Form III, 1-(4-amino-6,7-dimethoxy-2-quinazolinyl)-4-(tetrahydro-2-furoyl)piperazinemonohydrochloride]
Solubility of Various Forms of Terazosin Monohydrochloride ([1]; 0.5 minutes): 235 mg/mL
Solubility of Various Forms of Terazosin Monohydrochloride ([1]; 1 minute, 1 min): 237 mg/mL
Solubility of Various Forms of Terazosin Monohydrochloride ([1]; 2 minutes): 269 mg/mL
Solubility of Various Forms of Terazosin Monohydrochloride ([1]; 4 minutes): 261 mg/mL
solubility rapidly achieved relative to the dihydrate limit (about 30 mg/mL) ([1]; water, multiple of dihydrate solubility): about ten times
dissolution in water (in words) ([1]; water): rapidly dissolves in water
dissolution in water (in words) ([1]; water, listed as terazosin monohydrochloride Form III): dissolves in water much more rapidly than the dihydrate form

COc1cc2nc(N3CCN(C(=O)C4CCCO4)CC3)nc(N)c2cc1OC (stereo not shown) [terazosin, 1-(4-amino-6,7-dimethoxy-2-quinazolinyl)-4-(tetrahydro-2furoyl)piperazine]
solubility for oral administration (in words) [2]: does not possess the requisite solubility for convenient oral administration
acidic cleavage (stability) [3]: occurs rapidly in aqueous medium
